According to US20230190643A1, “IMPLANT FOR TREATMENT OF AN OCULAR CONDITION” (Allergan, Inc., priority 2015, published 2023):

What was measured:
GC receptor = target: T1, GC receptor (Homo sapiens, UniProt P04150); conditions: GC receptor-binding (Tajika 2011b); cited from earlier work
T1 sequence (P04150 1-777): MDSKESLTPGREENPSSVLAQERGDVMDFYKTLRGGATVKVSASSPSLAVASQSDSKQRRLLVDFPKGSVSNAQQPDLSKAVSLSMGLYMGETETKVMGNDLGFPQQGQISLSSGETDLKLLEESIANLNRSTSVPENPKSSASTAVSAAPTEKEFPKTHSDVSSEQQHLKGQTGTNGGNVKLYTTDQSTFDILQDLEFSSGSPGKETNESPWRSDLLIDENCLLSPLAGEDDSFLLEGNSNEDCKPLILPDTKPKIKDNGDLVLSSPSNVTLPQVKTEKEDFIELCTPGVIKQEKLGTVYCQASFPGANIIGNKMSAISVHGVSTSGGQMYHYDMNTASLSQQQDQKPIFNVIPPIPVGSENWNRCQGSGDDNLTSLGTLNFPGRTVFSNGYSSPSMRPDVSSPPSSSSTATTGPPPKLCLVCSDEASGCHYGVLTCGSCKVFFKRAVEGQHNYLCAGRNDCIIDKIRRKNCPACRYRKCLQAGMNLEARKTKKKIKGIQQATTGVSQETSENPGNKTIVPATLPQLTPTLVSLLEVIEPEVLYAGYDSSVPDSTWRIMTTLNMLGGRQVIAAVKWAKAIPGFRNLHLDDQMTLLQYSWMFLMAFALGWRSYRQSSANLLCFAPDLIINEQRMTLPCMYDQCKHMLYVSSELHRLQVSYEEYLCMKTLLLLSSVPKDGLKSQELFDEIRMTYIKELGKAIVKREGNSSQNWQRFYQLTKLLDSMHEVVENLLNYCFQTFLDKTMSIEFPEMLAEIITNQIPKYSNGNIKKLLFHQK

Ames test = conditions: cited from earlier work
mice = conditions: cited from earlier work
male and female rats = conditions: subcutaneous up to 10 μg/kg/day prior to and during mating; cited from earlier work
[1] = Impact of gamma irradiation (46 kGy) on difluprednate assay of implant formulations; type: physicochemical
Description: Terminal moist heat sterilization is not a viable method due to the fact that ENV905 is a solid dosage form designed to disintegrate in aqueous environments. Therefore, studies to evaluate gamma irradiation were conducted on early ENV905 formulations to determine if ionizing radiation was a viable option for a terminally sterilized drug product. ENV905 implants were exposed to gamma irradiation with a dose of 46 kGy per ISO 11137-2:2012 (Sterilization of Health Care Products—Radiation—Part 2: Establishing the Sterilization Dose). The implant formulations used for these studies consisted of a blend of difluprednate and PEGs.
Implants were individually packaged in HPLC vials with air headspace and polytetrafluoroethylene (PTFE)-lined screw caps. Ten individual implants (n=10) were tested for difluprednate assay.

CHL/IU = conditions: cited from earlier work
rabbits = conditions: subcutaneous during organogenesis, cited from earlier work
rodents and non-rodents = conditions: consistent between species; cited from earlier work

SMILES | Ki (GC receptor) | genotoxicity in vitro in the Ames test (Ames test) | in vivo micronucleus test (mice) | fertility (male and female rats) | Degradation ([1]; Radiation Dose 46 kGy) | Difluprednate Assay ([1]; Radiation Dose 46 kGy) | Difluprednate Assay ([1]; Radiation Dose None) | genotoxicity in cultured mammalian cells CHL/IU (CHL/IU) | embryotoxicity and teratogenicity (rabbits; 1-10 μg/kg/day) | NOEL for embryotoxic and teratogenic effects (rabbits) | teratogenic dose (rabbits) | no-observed-effect-level (NOEL), subchronic and chronic toxicity tests (rodents and non-rodents)
CCCC(=O)O[C@]1(C(=O)CO)CC[C@H]2[C@@H]3C[C@H](F)C4=CC(=O)C=C[C@]4(C)[C@@]3(F)[C@@H](O)C[C@@]21C [Desacetyl Difluprednate (DFB), 6α,9-difluoroprednisolone 17-butyrate] | 0.061 nM | – | – | – | – | – | – | – | – | – | – | –
CCCC(=O)O[C@]1(C(=O)COC(C)=O)CC[C@H]2[C@@H]3C[C@H](F)C4=CC(=O)C=C[C@]4(C)[C@@]3(F)[C@@H](O)C[C@@]21C [Difluprednate (DFBA), Difluprednate] | 0.78 nM | not genotoxic | negative | did not impair fertility in either gender | 0.85 % Area | 97.13 % Area | 97.98 % Area | not genotoxic | embryotoxic (decrease in embryonic body weight and a delay in embryonic ossification) and teratogenic (cleft palate and skeletal anomalies) | 1 µg/kg/day | 10 µg/kg/day | 1 to 1.25 µg/kg/day
